{
  "source": "the supplement of paper PMC10307832",
  "assay_in_all_cases": "relative viability (nuclei count vs DMSO), 5 days (fraction); higher = more cells survive",
  "key": {"NCI-H1793": {"tested_on": "NCI-H1793", "in_short": "(§1)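 Cells from lung cancer lines were seeded into 1536-well plates and, one day later, dosed by pin tool. Treatments were either a single drug or a fixed dose of an anchor drug with five library-drug doses (not always all listed) in √10 steps. After 5 days, nuclei were stained in a one-step fixation (final 0.05% Triton X-100, 1% formaldehyde, 1 ug/ml Hoechst) and counted on 4× images, and relative viability is the treated-to-vehicle nuclei ratio, as the median of duplicate plates.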"}, "NCI-H322M": {"tested_on": "NCI-H322M", "in_short": "as §1"}, "HARA": {"tested_on": "HARA", "in_short": "as §1"}, "LXF-289": {"tested_on": "LXF-289", "in_short": "as §1"}, "PC-3 [JPC-3]": {"tested_on": "PC-3 [JPC-3]", "in_short": "as §1"}, "NCI-H2126": {"tested_on": "NCI-H2126", "in_short": "as §1"}, "NCI-H2170": {"tested_on": "NCI-H2170", "in_short": "as §1"}, "NCI-H23": {"tested_on": "NCI-H23", "in_short": "as §1"}, "NCI-H1915": {"tested_on": "NCI-H1915", "in_short": "as §1"}, "NCI-H1666": {"tested_on": "NCI-H1666", "in_short": "as §1"}, "LCLC-97TM1": {"tested_on": "LCLC-97TM1", "in_short": "as §1"}, "SK-LU-1": {"tested_on": "SK-LU-1", "in_short": "as §1"}, "BEN": {"tested_on": "BEN", "in_short": "as §1"}, "NCI-H441": {"tested_on": "NCI-H441", "in_short": "as §1"}, "NCI-H1755": {"tested_on": "NCI-H1755", "in_short": "as §1"}, "A-427": {"tested_on": "A-427", "in_short": "as §1"}, "NCI-H2023": {"tested_on": "NCI-H2023", "in_short": "as §1"}, "NCI-H1944": {"tested_on": "NCI-H1944", "in_short": "as §1"}, "NCI-H460": {"tested_on": "NCI-H460", "in_short": "as §1"}, "NCI-H1395": {"tested_on": "NCI-H1395", "in_short": "as §1"}, "LU99A": {"tested_on": "LU99A", "in_short": "as §1"}, "LOU-NH91": {"tested_on": "LOU-NH91", "in_short": "as §1"}},
  "data": [
    {"smiles": "Cc1cnc(-c2cnc(NCCNc3ccc(C#N)cn3)nc2-c2ccc(Cl)cc2Cl)[nH]1", "note": "+ CC1(C)CCC(c2ccc(Cl)cc2)=C(CN2CCN(c3ccc(C(=O)NS(=O)(=O)c4ccc(N[C@H](CCN5CCOCC5)CSc5ccccc5)c(S(=O)(=O)C(F)(F)F)c4)cc3)CC2)C1 [Navitoclax] (partner 0.5 µM)", "values": [
      {"measurement": "relative viability", "setting": "NCI-H1793; first compound 0.08 µM", "value": 0.399},
      {"measurement": "relative viability", "setting": "NCI-H1793; first compound 0.253 µM", "value": 0.446},
      {"measurement": "relative viability", "setting": "NCI-H1793; first compound 0.8 µM", "value": 0.283},
      {"measurement": "relative viability", "setting": "NCI-H1793; first compound 2.53 µM", "value": 0.354},
      {"measurement": "relative viability", "setting": "NCI-H322M; first compound 0.08 µM", "value": 1.3},
      {"measurement": "relative viability", "setting": "NCI-H322M; first compound 0.253 µM", "value": 1.25},
      {"measurement": "relative viability", "setting": "NCI-H322M; first compound 0.8 µM", "value": 1.14},
      {"measurement": "relative viability", "setting": "NCI-H322M; first compound 2.53 µM", "value": 1.2},
      {"measurement": "relative viability", "setting": "HARA; first compound 0.08 µM", "value": 1.13},
      {"measurement": "relative viability", "setting": "HARA; first compound 0.253 µM", "value": 1.12},
      {"measurement": "relative viability", "setting": "HARA; first compound 0.8 µM", "value": 1.16},
      {"measurement": "relative viability", "setting": "HARA; first compound 2.53 µM", "value": 1.19},
      {"measurement": "relative viability", "setting": "LXF-289; first compound 0.08 µM", "value": 0.934},
      {"measurement": "relative viability", "setting": "LXF-289; first compound 0.253 µM", "value": 0.873},
      {"measurement": "relative viability", "setting": "LXF-289; first compound 0.8 µM", "value": 0.924},
      {"measurement": "relative viability", "setting": "LXF-289; first compound 2.53 µM", "value": 1.01},
      {"measurement": "relative viability", "setting": "PC-3 [JPC-3]; first compound 0.08 µM", "value": 0.81},
      {"measurement": "relative viability", "setting": "PC-3 [JPC-3]; first compound 0.253 µM", "value": 0.71},
      {"measurement": "relative viability", "setting": "PC-3 [JPC-3]; first compound 0.8 µM", "value": 0.809},
      {"measurement": "relative viability", "setting": "PC-3 [JPC-3]; first compound 2.53 µM", "value": 0.729},
      {"measurement": "relative viability", "setting": "NCI-H2126; first compound 0.08 µM", "value": 0.881},
      {"measurement": "relative viability", "setting": "NCI-H2126; first compound 0.253 µM", "value": 0.897},
      {"measurement": "relative viability", "setting": "NCI-H2126; first compound 0.8 µM", "value": 0.878},
      {"measurement": "relative viability", "setting": "NCI-H2126; first compound 2.53 µM", "value": 0.835},
      {"measurement": "relative viability", "setting": "NCI-H2170; first compound 0.08 µM", "value": 0.638},
      {"measurement": "relative viability", "setting": "NCI-H2170; first compound 0.253 µM", "value": 0.51},
      {"measurement": "relative viability", "setting": "NCI-H2170; first compound 0.8 µM", "value": 0.517},
      {"measurement": "relative viability", "setting": "NCI-H2170; first compound 2.53 µM", "value": 0.537},
      {"measurement": "relative viability", "setting": "NCI-H23; first compound 0.08 µM", "value": 0.875},
      {"measurement": "relative viability", "setting": "NCI-H23; first compound 0.253 µM", "value": 0.87},
      {"measurement": "relative viability", "setting": "NCI-H23; first compound 0.8 µM", "value": 0.63},
      {"measurement": "relative viability", "setting": "NCI-H23; first compound 2.53 µM", "value": 0.785},
      {"measurement": "relative viability", "setting": "NCI-H1915; first compound 0.08 µM", "value": 0.85},
      {"measurement": "relative viability", "setting": "NCI-H1915; first compound 0.8 µM", "value": 0.704},
      {"measurement": "relative viability", "setting": "NCI-H1915; first compound 2.53 µM", "value": 0.778},
      {"measurement": "relative viability", "setting": "NCI-H1666; first compound 0.08 µM", "value": 0.921},
      {"measurement": "relative viability", "setting": "NCI-H1666; first compound 0.253 µM", "value": 0.868},
      {"measurement": "relative viability", "setting": "NCI-H1666; first compound 0.8 µM", "value": 0.835},
      {"measurement": "relative viability", "setting": "NCI-H1666; first compound 2.53 µM", "value": 1.26},
      {"measurement": "relative viability", "setting": "LCLC-97TM1; first compound 0.08 µM", "value": 0.41},
      {"measurement": "relative viability", "setting": "LCLC-97TM1; first compound 0.253 µM", "value": 0.377},
      {"measurement": "relative viability", "setting": "LCLC-97TM1; first compound 0.8 µM", "value": 0.42},
      {"measurement": "relative viability", "setting": "LCLC-97TM1; first compound 2.53 µM", "value": 0.4},
      {"measurement": "relative viability", "setting": "SK-LU-1; first compound 0.08 µM", "value": 0.976},
      {"measurement": "relative viability", "setting": "SK-LU-1; first compound 0.253 µM", "value": 0.807},
      {"measurement": "relative viability", "setting": "SK-LU-1; first compound 0.8 µM", "value": 1.2},
      {"measurement": "relative viability", "setting": "SK-LU-1; first compound 2.53 µM", "value": 0.692},
      {"measurement": "relative viability", "setting": "BEN; first compound 0.08 µM", "value": 0.0701},
      {"measurement": "relative viability", "setting": "BEN; first compound 0.253 µM", "value": 0.0548},
      {"measurement": "relative viability", "setting": "BEN; first compound 0.8 µM", "value": 0.0658},
      {"measurement": "relative viability", "setting": "BEN; first compound 2.53 µM", "value": 0.0673},
      {"measurement": "relative viability", "setting": "NCI-H441; first compound 0.08 µM", "value": 0.719},
      {"measurement": "relative viability", "setting": "NCI-H441; first compound 0.253 µM", "value": 0.535},
      {"measurement": "relative viability", "setting": "NCI-H441; first compound 0.8 µM", "value": 0.745},
      {"measurement": "relative viability", "setting": "NCI-H441; first compound 2.53 µM", "value": 0.57},
      {"measurement": "relative viability", "setting": "NCI-H1755; first compound 0.08 µM", "value": 1.07},
      {"measurement": "relative viability", "setting": "NCI-H1755; first compound 0.253 µM", "value": 0.866},
      {"measurement": "relative viability", "setting": "NCI-H1755; first compound 0.8 µM", "value": 1.01},
      {"measurement": "relative viability", "setting": "NCI-H1755; first compound 2.53 µM", "value": 0.989},
      {"measurement": "relative viability", "setting": "A-427; first compound 0.08 µM", "value": 0.939},
      {"measurement": "relative viability", "setting": "A-427; first compound 0.253 µM", "value": 0.947},
      {"measurement": "relative viability", "setting": "A-427; first compound 0.8 µM", "value": 0.973},
      {"measurement": "relative viability", "setting": "A-427; first compound 2.53 µM", "value": 0.925},
      {"measurement": "relative viability", "setting": "NCI-H2023; first compound 0.08 µM", "value": 1.01},
      {"measurement": "relative viability", "setting": "NCI-H2023; first compound 0.253 µM", "value": 0.977},
      {"measurement": "relative viability", "setting": "NCI-H2023; first compound 0.8 µM", "value": 1.08},
      {"measurement": "relative viability", "setting": "NCI-H2023; first compound 2.53 µM", "value": 1.09},
      {"measurement": "relative viability", "setting": "NCI-H1944; first compound 0.08 µM", "value": 1.03},
      {"measurement": "relative viability", "setting": "NCI-H1944; first compound 0.8 µM", "value": 0.992},
      {"measurement": "relative viability", "setting": "NCI-H1944; first compound 2.53 µM", "value": 1},
      {"measurement": "relative viability", "setting": "NCI-H460; first compound 0.08 µM", "value": 1.16},
      {"measurement": "relative viability", "setting": "NCI-H460; first compound 0.253 µM", "value": 1.12},
      {"measurement": "relative viability", "setting": "NCI-H460; first compound 0.8 µM", "value": 1.17},
      {"measurement": "relative viability", "setting": "NCI-H460; first compound 2.53 µM", "value": 1.04},
      {"measurement": "relative viability", "setting": "NCI-H1395; first compound 0.08 µM", "value": 1.25},
      {"measurement": "relative viability", "setting": "NCI-H1395; first compound 0.253 µM", "value": 1.15},
      {"measurement": "relative viability", "setting": "NCI-H1395; first compound 0.8 µM", "value": 1.19},
      {"measurement": "relative viability", "setting": "NCI-H1395; first compound 2.53 µM", "value": 1.15},
      {"measurement": "relative viability", "setting": "LU99A; first compound 0.08 µM", "value": 0.858},
      {"measurement": "relative viability", "setting": "LU99A; first compound 0.253 µM", "value": 0.808},
      {"measurement": "relative viability", "setting": "LU99A; first compound 0.8 µM", "value": 0.794},
      {"measurement": "relative viability", "setting": "LU99A; first compound 2.53 µM", "value": 0.823},
      {"measurement": "relative viability", "setting": "LOU-NH91; first compound 0.08 µM", "value": 0.821},
      {"measurement": "relative viability", "setting": "LOU-NH91; first compound 0.253 µM", "value": 0.679},
      {"measurement": "relative viability", "setting": "LOU-NH91; first compound 0.8 µM", "value": 0.611},
      {"measurement": "relative viability", "setting": "LOU-NH91; first compound 2.53 µM", "value": 0.633}
    ]}
  ]
}
